We go through 14 molecules from patent US6469138B1, “Thrombospondin receptor binding peptides” (Washington University, priority 1993, dated 2002).

Entries after “also recorded” stand apart in the source; their conditions may differ. Where a SMILES comes first, the peptide text is derived from it. Where no end group is shown, it is not given here.

Data set [1] deals with G361 cells. Briefly: Inhibition by soluble peptides of G361 cell attachment to immobilized rCBD of TS1. The class given is cell-based, human. The conditions noted are these: for inhibition of G361 cell attachment to rCBD (in words): soluble peptide inhibitor, immobilized rCBD. Here is the method:
FIGS. 3A and 3B show the effect of the active subpeptides of C4 and C7 on G361 cell attachment to the rCBD of TS1. To microtiter wells containing immobilized rCBD (10 μg/ml), G361 cells were added with (FIG. 3A) 4N1-1 (●), 7N3-1 (▪), 4N1-1 plus 7N3-1 (▴) and with (FIG. 3B) 4N1 (▪), 7N3 (●) and 4N1 plus 7N3 (▴). The cells were incubated for 1.5 hr in the wells and cell attachment was determined. The effects of these subpeptides on cell attachment are expressed as percent relative to the maximum cell attachment for each test where 100% is the number of cells binding to rCBD-coated well in the absence of peptide inhibitors.
After blocking, cells were allowed to attach for 1 hr at 37° C. to substrate-coated wells or beads. In some tests, inhibition was determined by adding peptide inhibitors of cell attachment to each well along with the cells. After removal of non-adhering cells, cells attached to immobilized substrates were quantitated with endogenous cellular phosphatase activity which is measured by absorption at 410 nm as previously described (Prater et al., 1991). Each assay was carried out in duplicate and each peptide was tested in 3 separate tests at 3 or more different concentrations.
To be sure that the active peptides from C4 and C7 contain the sequences that are relevant for attachment of cells to the CBD, the shorter, more soluble active peptides were tested as soluble inhibitors of the binding of G361 cells to rCBD immobilized on plastic wells. […] In contrast, 4N1-1 and 4N1, the active subpeptides for C4, are insoluble at concentrations higher than 0.2 mM and thus must be tested as soluble inhibitors at concentrations below this solubility limit. It should be noted that inclusion of peptides in the cell attachment assay at these concentrations had no adverse effects on the cells. The results of this complementary bioassay confirmed those of the direct cell adhesion assays (FIGS. 1 and 2). […] The inhibition was dose-dependent at peptide concentrations <0.1 mM for 4N1 and 7N3 and <0.2 mM for 4N1-1 and 7N3-1. […] Each peptide is present at ½ the indicated concentration. In the case of 4N1 plus 7N3, the inhibition was nearly complete (87%). […] To evaluate the contribution of adjacent sequences to activity, peptide 7N2-2 which contained the N-terminal sequence of 7N3-1, and 7N3-1 were examined in inhibition studies.

Data set [2] relates to K562 human erythroleukemia cells. Briefly: Attachment of K562 cells to immobilized TS1, LM or rCBD. It counts as cell-based. The conditions noted are these: protein-coated wells. Here is the method: (§1) FIGS. 6A, 6B, 6C and 6D show the attachment of four cell types to immobilized TS-1 and LM. Wells were coated with the indicated concentrations of TS1 (▪) or LM (●). Assays were performed as described under “Methods” hereinafter with (FIG. 6A)—G361 human melanomas; (FIG. 6B)—K562 erythroleukemia cells; (FIG. 6C)—HT1080 fibrosarcomas; and (FIG. 6D)—C32 amelanotic melanomas added to the wells.
(§2) Cell Adhesion Assay—Cell adhesion was performed in 96-well plates by conventional procedures as previously described (Prater et al., 1991; Kosfeld and Frazier, 1992). Synthetic peptides were solubilized with 6 N guanidine HCl (GnHCl) because some hydrophobic peptides were insoluble at concentrations approaching 1 mM in TBS. […] The efficiency of coupling of all peptides was greater than 90% as judged by UV absorbance. […]
(§3) After blocking, cells were allowed to attach for 1 hr at 37° C. to substrate-coated wells or beads. In some tests, inhibition was determined by adding peptide inhibitors of cell attachment to each well along with the cells. After removal of non-adhering cells, cells attached to immobilized substrates were quantitated with endogenous cellular phosphatase activity which is measured by absorption at 410 nm as previously described (Prater et al., 1991). […]

For data set [3], the system named is G361 human melanomas. In words: Attachment of G361 cells to immobilized TS1 or LM. It counts as cell-based. The conditions noted are these: protein-coated wells. Here is the method: as §1, §2, §3
Data set [4] relates to HT1080 human fibrosarcomas. Briefly: Attachment of HT1080 cells to immobilized TS1 or LM. The class given is cell-based. The conditions noted are these: protein-coated wells. Here is the method:
as §1, §2, §3

For data set [5], the system named is C32 human melanoma. In words: Attachment of C32 cells to immobilized TS1 or LM. The class given is cell-based. The following applies: protein-coated wells. The method, then:
as §1, §2, §3

Data set [6] is described as follows: Solubility of peptides. It counts as physicochemical. The conditions noted are these: for solubility: insoluble at higher concentrations, read-out: solubility limit.
The test system of data set [7] is G361 cells. In words: Direct attachment of G361 cells to peptides adsorbed on microtiter wells (cell adhesion assay). It counts as cell-based, human. The conditions noted are these: peptide adsorbed to plastic wells; cells 1 hr at 37° C.; in words. The method, then: Equimolar concentrations of peptides shown in FIG. 1A were evaluated as attachment factors for G361 cells. Peptides C4 (¤), 4N (●), 4N1 (▴), 4N1-1 (♦), 4N2 (▪) and 4C ([formula]) were adsorbed to microtiter plates at the indicated concentrations. Cells were added to the wells and incubated for 1 hour at 37° C. The attached cells were quantitated as described under “Materials and Methods” hereinbelow, and the actual absorbance due to endogenous cellular phosphatase hydrolysis of p-Nitrophenyl phosphate at 410 nm is plotted.
Microtiter wells were adsorbed with peptides C7 (▪), 7N (●), 7N3 (▴), 7N3-1 (♦), 7N2 (▪), 7N2-2 (∘), 7N3-2 (▴) and 7C, 7N1 or 7N2-1 ([formula]) at various concentrations and the attachment of G361 cells was determined. The numbers of cells attached to these peptides were correlated with the cellular phosphatase activity which is expressed as absorbance at 410 nm.
Cell Adhesion Assay—Cell adhesion was performed in 96-well plates by conventional procedures as previously described (Prater et al., 1991; Kosfeld and Frazier, 1992). […] The efficiency of coupling of all peptides was greater than 90% as judged by UV absorbance. […]
After blocking, cells were allowed to attach for 1 hr at 37° C. to substrate-coated wells or beads. In some tests, inhibition was determined by adding peptide inhibitors of cell attachment to each well along with the cells. […]

For data set [8], the target named is thrombospondin 1 (TS1) receptor.
Data set [9] has the same target. The source holds these as a separate data set.
Data set [10] addresses LM receptor.
For data set [11], the target named is thrombospondin 1 (TS1) receptor. This is another data set of the same source.

Regarding Ile-Arg-Val-Val-Gly (IRVVG), in data set [1], the “inhibition of G361 cell attachment to rCBD (in words)” value (from here on “inhibition … (in words)”) was “inactive”.
For the molecule “rCBD: recombinant COOH-terminal cell binding domain of TS1 expressed in bacteria as protein A-CBD fusion protein”, in [2], the “attachment of K562 cells to immobilized protein” value is reported as “bound well”.
Take “TS1: thrombospondin 1, extracellular matrix protein”: the “attachment of G361 cells to immobilized protein” value in data set [3] was “bound well”. Further, the “attachment of K562 cells to immobilized protein” value in data set [2] is “much more avidly than to LM”. Further, the “attachment of HT1080 cells to immobilized protein” value in data set [4] is listed as “bound well”. The “attachment of C32 cells to immobilized protein” value in data set [5] is on record as “much more avidly than to LM”.
Turning to `CSCC[C@H](NC(=O)[C@@H](NC(=O)[C@@H](NC(=O)[C@H](Cc1ccc(O)cc1)NC(=O)[C@H](Cc1ccccc1)NC(=O)[C@@H](N)CCCNC(=N)N)C(C)C)C(C)C)C(=O)N[C@@H](Cc1c[nH]c2ccccc12)C(=O)N[C@@H](CCCCN)C(=O)N[C@@H](CCC(N)=O)C(=O)N[C@H](C(=O)N[C@H](C(=O)N[C@@H](CCC(N)=O)C(=O)N[C@@H](CO)C(=O)O)[C@@H](C)O)C(C)C` [4N1, Arg-Phe-Tyr-Val-Val-Met-Trp-Lys-Gln-Val-Thr-Gln-Ser] (H-RFYVVMWKQVTQS-OH; N-terminus and C-terminus assumed), the solubility in data set [6] was at most 200 µM.
`CC[C@H](C)[C@H](N)C(=O)N[C@@H](CCCNC(=N)N)C(=O)N[C@H](C(=O)N[C@H](C(=O)N[C@@H](CCSC)C(=O)O)C(C)C)C(C)C` [7N3-1, Ile-Arg-Val-Val-Met] (H-IRVVM-OH; N-terminus and C-terminus assumed): in data set [6], the “solubility (in words)” value is recorded as “highly soluble”.
For `CSCC[C@H](NC(=O)[C@@H](NC(=O)[C@@H](NC(=O)[C@H](Cc1ccc(O)cc1)NC(=O)[C@H](Cc1ccccc1)NC(=O)[C@@H](N)CCCNC(=N)N)C(C)C)C(C)C)C(=O)N[C@@H](Cc1c[nH]c2ccccc12)C(=O)N[C@@H](CCCCN)C(=O)O` [4N1-1, Arg-Phe-Tyr-Val-Val-Met-Trp-Lys], the solubility in data set [6] is at most 200 µM.
As to RFYVVM [4N1-2], the “cell attachment activity (direct attachment of G361 cells to immobilized peptide)” value in [7] is reported as “little or no activity”. Further, the “inhibition … (in words)” value in [1] is recorded as “as potent as the longer 4N1-1; also recorded: active”.
FIRVVMYEGKK [7N3]: the “cell attachment activity (direct attachment of G361 cells to immobilized peptide)” value in data set [7] is on record as “significant activity”. The “inhibition of G361 cell attachment to rCBD-coated surfaces” value in data set [1] (rCBD 10 μg/ml immobilized, soluble peptide, combinations: each peptide at ½ the indicated concentration) was around 50%.
Consider Gly-Arg-Val-Val-Met (GRVVM), for which the “inhibition … (in words)” value in data set [1] is “inactive”.
Regarding Ile-Glu-Val-Val-Met (IEVVM), the “inhibition … (in words)” value in [1] was “inactive”.
With RFYVVMWK [4N1-1], the attachment of G361 cells to peptide adsorbed to microtiter wells (absorbance at 410 nm) (% of the maximum activity of 4N1) in data set [8] stood at 60. In data set [9], this molecule registered an inhibition of G361 cell attachment to rCBD-coated wells of 30 % inhibition. Also, the inhibition of G361 cell attachment to LM-coated wells in [10] was determined as 32 % inhibition. The same molecule had an inhibition of K562 cell attachment to immobilised rCBD in [11] of 36 % inhibition.
Regarding IRVVM [7N3-1], the inhibition of G361 cell attachment to rCBD-coated wells in [9] turned out to be 25 % inhibition. Also, the inhibition of G361 cell attachment to LM-coated wells in data set [10] stood at 50 % inhibition. Moreover, the inhibition of K562 cell attachment to immobilised rCBD in [11] stood at 28 % inhibition.
In the case of FIRVVMYEGKK [7N3], the inhibition of G361 cell attachment to rCBD-coated wells in data set [9] stood at 50 % inhibition.
On to RFYVVMWKQVTQS [4N1], for which the inhibition of G361 cell attachment to rCBD-coated wells in [9] turned out to be 30 % inhibition.

Usually solubility stands for the concentration that dissolves in the medium under given conditions.
